Results: PubChem BioAssay (NCI)
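Where inhibition never reached the appropriate level, the endpoint shown equals the highest concentration tested. Otherwise, values were interpolated linearly from a five-concentration, 48-hour dose response in 96-well plates. TGI: total growth inhibition.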

What was measured:
Assay in all cases: NCI tumour cell line growth inhibition, 48 h
SF-295 CNS = system: SF-295 CNS
MALME-3M melanoma = system: MALME-3M melanoma
SF-268 CNS = system: SF-268 CNS
RPMI-8226 leukemia = system: RPMI-8226 leukemia
NCI-H23 lung = system: NCI-H23 lung
NCI-H226 lung = system: NCI-H226 lung
LXFL 529 NSCLC = system: LXFL 529 NSCLC
SNB-78 CNS = system: SNB-78 CNS
SN12C renal = system: SN12C renal
COLO 205 colon = system: COLO 205 colon
HOP-62 NSCLC = system: HOP-62 NSCLC
ACHN renal = system: ACHN renal
HCT-15 colon = system: HCT-15 colon
OVCAR-4 ovarian = system: OVCAR-4 ovarian
OVCAR-8 ovarian = system: OVCAR-8 ovarian
SF-539 CNS = system: SF-539 CNS
A549 NSCLC = system: A549 NSCLC
HT29 colon = system: HT29 colon
TK-10 renal = system: TK-10 renal
RXF-631 renal = system: RXF-631 renal
IGROV1 ovarian = system: IGROV1 ovarian
OVCAR-3 ovarian = system: OVCAR-3 ovarian
KM20L2 colon = system: KM20L2 colon
UO-31 renal = system: UO-31 renal
UACC-62 melanoma = system: UACC-62 melanoma
SK-MEL-2 melanoma = system: SK-MEL-2 melanoma
DLD-1 colon = system: DLD-1 colon
EKVX NSCLC = system: EKVX NSCLC
DMS 114 small cell lung = system: DMS 114 small cell lung
SK-OV-3 ovarian = system: SK-OV-3 ovarian
HCC-2998 colon = system: HCC-2998 colon
OVCAR-5 ovarian = system: OVCAR-5 ovarian
M14 melanoma = system: M14 melanoma
SW-620 colon = system: SW-620 colon
UACC-257 melanoma = system: UACC-257 melanoma
HOP-18 NSCLC = system: HOP-18 NSCLC
CAKI-1 renal = system: CAKI-1 renal
SK-MEL-28 melanoma = system: SK-MEL-28 melanoma
SK-MEL-5 melanoma = system: SK-MEL-5 melanoma
HCT-116 colon = system: HCT-116 colon
SR leukemia = system: SR leukemia
KM12 colon = system: KM12 colon
SNB-75 CNS = system: SNB-75 CNS
HOP-92 NSCLC = system: HOP-92 NSCLC
A498 renal = system: A498 renal
MOLT-4 leukemia = system: MOLT-4 leukemia
CCRF-CEM leukemia = system: CCRF-CEM leukemia
DMS 273 small cell lung = system: DMS 273 small cell lung
K-562 leukemia = system: K-562 leukemia
NCI-H522 lung = system: NCI-H522 lung
HL-60(TB) leukemia = system: HL-60(TB) leukemia
U251 CNS = system: U251 CNS
M19-MEL melanoma = system: M19-MEL melanoma
786-0 renal = system: 786-0 renal
SNB-19 CNS = system: SNB-19 CNS
NCI-H460 lung = system: NCI-H460 lung
RXF 393 renal = system: RXF 393 renal
LOX IMVI melanoma = system: LOX IMVI melanoma
XF 498 CNS = system: XF 498 CNS

For `CS(=O)(=O)OCc1c(O)c2c(c(O)c1COS(C)(=O)=O)C(=O)C=CC2=O`, the TGI (SF-295 CNS) was over 100 µM, the TGI (MALME-3M melanoma) was over 100 µM and the TGI (SF-268 CNS) was over 100 µM. The TGI (RPMI-8226 leukemia) was over 100 µM, the TGI (NCI-H23 lung) was over 100 µM and the TGI (NCI-H226 lung) was over 100 µM. It also gave a TGI (LXFL 529 NSCLC) of over 100 µM, a TGI (SNB-78 CNS) of over 100 µM and a TGI (SN12C renal) of over 100 µM. The TGI (COLO 205 colon) was over 100 µM, the TGI (HOP-62 NSCLC) was over 100 µM and the TGI (ACHN renal) was over 100 µM. It also gave a TGI (HCT-15 colon) of over 100 µM, a TGI (OVCAR-4 ovarian) of over 100 µM and a TGI (OVCAR-8 ovarian) of over 100 µM. The TGI (SF-539 CNS) was over 100 µM, the TGI (A549 NSCLC) was over 100 µM and the TGI (HT29 colon) was over 100 µM. It also gave a TGI (TK-10 renal) of over 100 µM, a TGI (RXF-631 renal) of over 100 µM and a TGI (IGROV1 ovarian) of over 100 µM. For the same molecule, the TGI (OVCAR-3 ovarian) was over 100 µM, the TGI (KM20L2 colon) was over 100 µM and the TGI (UO-31 renal) was over 100 µM. For the same molecule, the TGI (UACC-62 melanoma) was over 100 µM, the TGI (SK-MEL-2 melanoma) was over 100 µM and the TGI (DLD-1 colon) was over 100 µM. The TGI (EKVX NSCLC) was over 100 µM, the TGI (DMS 114 small cell lung) was over 100 µM and the TGI (SK-OV-3 ovarian) was over 100 µM. The TGI (HCC-2998 colon) was over 100 µM, the TGI (OVCAR-5 ovarian) was over 100 µM and the TGI (M14 melanoma) was over 100 µM. The TGI (SW-620 colon) was over 100 µM, the TGI (UACC-257 melanoma) was over 100 µM and the TGI (HOP-18 NSCLC) was over 100 µM. It also gave a TGI (CAKI-1 renal) of over 100 µM, a TGI (SK-MEL-28 melanoma) of over 100 µM and a TGI (SK-MEL-5 melanoma) of over 100 µM. For the same molecule, the TGI (HCT-116 colon) was over 100 µM, the TGI (SR leukemia) was over 100 µM and the TGI (KM12 colon) was over 100 µM. For the same molecule, the TGI (SNB-75 CNS) was over 100 µM, the TGI (HOP-92 NSCLC) was over 100 µM and the TGI (A498 renal) was over 100 µM. For the same molecule, the TGI (MOLT-4 leukemia) was over 100 µM, the TGI (CCRF-CEM leukemia) was over 100 µM and the TGI (DMS 273 small cell lung) was over 100 µM. The TGI (K-562 leukemia) was over 100 µM, the TGI (NCI-H522 lung) was over 100 µM and the TGI (HL-60(TB) leukemia) was over 100 µM. The TGI (U251 CNS) was over 100 µM.
`CP(C)C.[Ag][I]` showed a TGI (SF-295 CNS) of over 100 µM, a TGI (MALME-3M melanoma) of over 100 µM and a TGI (SF-268 CNS) of over 100 µM. The TGI (RPMI-8226 leukemia) was over 100 µM, the TGI (NCI-H23 lung) was over 100 µM and the TGI (NCI-H226 lung) was over 100 µM. It also gave a TGI (LXFL 529 NSCLC) of 31.8 µM, a TGI (SNB-78 CNS) of 96.1 µM and a TGI (SN12C renal) of over 100 µM. It also gave a TGI (COLO 205 colon) of over 100 µM, a TGI (M19-MEL melanoma) of over 100 µM and a TGI (HOP-62 NSCLC) of over 100 µM. The TGI (ACHN renal) was over 100 µM, the TGI (HCT-15 colon) was over 100 µM and the TGI (OVCAR-4 ovarian) was 69.5 µM. The TGI (OVCAR-8 ovarian) was over 100 µM, the TGI (SF-539 CNS) was over 100 µM and the TGI (786-0 renal) was over 100 µM. For the same molecule, the TGI (SNB-19 CNS) was over 100 µM, the TGI (A549 NSCLC) was over 100 µM and the TGI (HT29 colon) was over 100 µM. It also gave a TGI (TK-10 renal) of over 100 µM, a TGI (RXF-631 renal) of over 100 µM and a TGI (IGROV1 ovarian) of over 100 µM. For the same molecule, the TGI (OVCAR-3 ovarian) was over 100 µM, the TGI (KM20L2 colon) was over 100 µM and the TGI (UO-31 renal) was over 100 µM. The TGI (UACC-62 melanoma) was over 100 µM, the TGI (SK-MEL-2 melanoma) was over 100 µM and the TGI (DLD-1 colon) was over 100 µM. For the same molecule, the TGI (EKVX NSCLC) was over 100 µM, the TGI (DMS 114 small cell lung) was over 100 µM and the TGI (SK-OV-3 ovarian) was over 100 µM. The TGI (NCI-H460 lung) was over 100 µM, the TGI (RXF 393 renal) was over 100 µM and the TGI (HCC-2998 colon) was over 100 µM. The TGI (LOX IMVI melanoma) was over 100 µM, the TGI (OVCAR-5 ovarian) was over 100 µM and the TGI (M14 melanoma) was over 100 µM. It also gave a TGI (SW-620 colon) of over 100 µM, a TGI (UACC-257 melanoma) of over 100 µM and a TGI (HOP-18 NSCLC) of over 100 µM. For the same molecule, the TGI (XF 498 CNS) was 30.9 µM, the TGI (CAKI-1 renal) was over 100 µM and the TGI (SK-MEL-28 melanoma) was over 100 µM. The TGI (SK-MEL-5 melanoma) was 46.4 µM, the TGI (HCT-116 colon) was over 100 µM and the TGI (SR leukemia) was over 100 µM. It also gave a TGI (KM12 colon) of over 100 µM, a TGI (SNB-75 CNS) of 46.5 µM and a TGI (HOP-92 NSCLC) of over 100 µM. It also gave a TGI (MOLT-4 leukemia) of over 100 µM, a TGI (CCRF-CEM leukemia) of over 100 µM and a TGI (DMS 273 small cell lung) of over 100 µM. It also gave a TGI (K-562 leukemia) of over 100 µM, a TGI (HL-60(TB) leukemia) of over 100 µM and a TGI (U251 CNS) of over 100 µM.
